Source: patent US20050058600A1, “3,3'-Diindolylmethane antiandrogenic compositions” (priority 2003, published 2005)

Experiments:
PSA protein = assay: Western blot of intracellular and secreted PSA in LNCaP cells; type: cell-based, human; details: DHT co-treatment
Description: Analysis of Intracellular and Secreted PSA. LNCaP cells growing on 100 mm plates were treated for 24 h. Cells were lysed as previously described (20) for intracellular PSA analysis. For secreted proteins, spent medium was collected and concentrated 18-fold using Millipore Centriprep YM-10 following manufacturer's protocol (Bedford, Mass.). Protease inhibitors were added and the proteins were immunoprecipitated with 3 μg/mL monoclonal free PSA antibody (Biodesign International) for 2 h and co-immunoprecipitated overnight at 4° C. with Protein A/G agarose (Santa Cruz Biotechnology, Santa Cruz, Calif.) on a rotator. The samples were then subjected to Western blot analysis as described previously (20) using a monoclonal PSA (sc-7316) primary antibody and a goat anti-mouse-IgG-AP secondary antibody.

mutant AR of LNCaP cells = biological target: T1, mutant AR of LNCaP cells (Homo sapiens, UniProt P10275, T878A); assay: Competitive [3H]DHT binding assay, LNCaP cell extracts; details: micromolar concentration range
T1 construct: 95 μL of either LNCaP cell extracts or recombinant AR protein; endogenous in cells; host or cells: LNCaP
T1 sequence (P10275 1-920 T878A): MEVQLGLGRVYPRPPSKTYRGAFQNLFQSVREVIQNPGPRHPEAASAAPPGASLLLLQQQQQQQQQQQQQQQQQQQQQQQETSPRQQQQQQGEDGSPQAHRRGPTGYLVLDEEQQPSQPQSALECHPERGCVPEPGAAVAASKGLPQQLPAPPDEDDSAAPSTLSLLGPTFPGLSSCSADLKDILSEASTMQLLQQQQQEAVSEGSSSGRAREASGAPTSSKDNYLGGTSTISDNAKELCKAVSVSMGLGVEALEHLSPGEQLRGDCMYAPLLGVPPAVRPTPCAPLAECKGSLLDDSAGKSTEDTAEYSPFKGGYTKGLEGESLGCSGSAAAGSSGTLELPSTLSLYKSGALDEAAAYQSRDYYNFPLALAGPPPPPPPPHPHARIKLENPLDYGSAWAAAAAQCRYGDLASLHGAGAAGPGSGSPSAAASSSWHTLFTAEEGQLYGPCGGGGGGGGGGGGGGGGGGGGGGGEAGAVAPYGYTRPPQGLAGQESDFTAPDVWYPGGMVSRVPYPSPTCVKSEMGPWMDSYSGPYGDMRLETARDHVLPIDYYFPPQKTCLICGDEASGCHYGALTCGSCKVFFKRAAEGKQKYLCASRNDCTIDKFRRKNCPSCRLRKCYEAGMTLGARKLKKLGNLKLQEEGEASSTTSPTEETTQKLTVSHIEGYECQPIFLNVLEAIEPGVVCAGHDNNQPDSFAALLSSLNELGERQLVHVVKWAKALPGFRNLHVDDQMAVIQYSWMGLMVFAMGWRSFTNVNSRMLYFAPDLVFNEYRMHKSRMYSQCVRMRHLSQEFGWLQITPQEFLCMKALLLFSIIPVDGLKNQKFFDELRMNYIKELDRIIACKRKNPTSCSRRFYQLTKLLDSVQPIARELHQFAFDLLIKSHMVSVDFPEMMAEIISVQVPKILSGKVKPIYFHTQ
Description: Hormone Binding Assay. LNCaP cells were grown in 5% DCC-FBS-DMEM medium supplemented with 4.0 g/L glucose and 3.7 g/L sodium bicarbonate and harvested in HBS containing 1.5 mM EDTA by scraping with a rubber policeman. The cells were placed on ice, collected by centrifugation, washed with ice-cold TKEG buffer (20 mM Tris-HCl pH 7.4, 50 mM KCl, 1 mM EDTA, 0.1 mM PMSF, and 10% glycerol) and resuspended in 250 μL/plate homogenization buffer (50 mM Tris-HCl pH 7.4, 1.5 mM EDTA, 10 mM sodium molybdate, 2.5 mM β-mercaptoethanol, 50 mM KCl, 0.1 mM PMSF, and 10% glycerol). Cells were homogenized using a Polytron apparatus at medium speed for 1 min on ice. The homogenates were centrifuged at 50,000 rpm in 4° C. for 60 min. The supernatant solution was divided into 1.0 mL aliquots, quickly frozen in a dry-ice/ethanol bath and stored at −80° C. Protein concentration was determined by the Bradford assay using bovine serum albumin as the standard. […] Competitive ligands were added as 1.0 μL of 100× solution in DMSO. After mixing, 95 μL of either LNCaP cell extracts or recombinant AR protein (PanVera, Madison, Wis.) was added and the solutions were vortexed and incubated at room temperature for 2-3 h. […]

[1] = tested on: BP-induced pulmonary adenomas; details: mice; cited from earlier work
PC-3 cells = assay: PC-3 cell growth (cell counting); type: cell-based, human; details: 96 h treatment; same concentrations (up to 50 μM)
Description: DIM was prepared from I3C as described (26-28) and recrystallized in toluene. The human prostate adenocarcinoma cell lines LNCaP-FGC and PC-3 were obtained from the American Type Culture Collection (Rockville, Md.). They were grown as adherent monolayers in 10% FBS-DMEM, supplemented with 4.0 g/L glucose and 3.7 g/L sodium bicarbonate in a humidified incubator at 37° C. and 5% CO2 and passaged at approximately 80% confluency. Cultures used in subsequent experiments were at less than 40 passages. Cells grown in stripped conditions were in 5% DCC-FBS-DMEM base supplemented with 4.0 g/L glucose, 3.7 g/L sodium bicarbonate, and 0.293 g/L L-Glutamine.
Cell Growth. Before the beginning of the treatments, cells were depleted of androgen for 4-7 d in medium composed of DMEM base without phenol-red and with 4.0 g/L glucose and 3.7 g/L sodium bicarbonate. During the depletion period, medium was changed every 48 h. Treatments were administered by addition of 1 μL of 1,000× solution in DMSO per mL of medium. Once the treatment period started, medium was changed daily to counter possible loss of readily metabolized compounds.
Cell Counting. Cells were harvested by trypsinization and resuspended in culture medium. Aliquots were diluted 50-fold in Isoton II (Coulter Corp., Miami, Fla.) and 200 μL duplicates were counted in a model Z1 Coulter particle counter and averaged.

PSA gene expression = assay: Northern blot of endogenous PSA mRNA in LNCaP cells; type: cell-based, human
Description: RNA Extraction, mRNA Purification and Northern Hybridization. mRNA isolation and Northern blot analyses were conducted as described previously (20, 31). PSA cDNA and the cDNA probes were biotinylated using NEBlot Phototope kit (New England Biolabs, Beverly, Mass.), purified via precipitation with 3 M sodium acetate (pH 5.2) and washed with 70% ethanol. After hybridization with cDNA probes, the membrane was incubated with streptavidin then biotinylated with alkaline phosphatase followed by the Phototope-CDP-Star assay (New England Biolabs, Beverly, Mass.), and autoradiographed. The amount of mRNA was quantified by Gel Densitometer (Bio-Rad) and normalized with β-actin as an internal control.

What does the source list for `c1ccc2c(Cc3c[nH]c4ccccc34)c[nH]c2c1` [DIM, 3,3′-diindolylmethane]?
levels of intracellular and secreted PSA protein (PSA protein): reduced levels of intracellular and secreted PSA protein to background concentrations; competition with labeled DHT for binding to the AR (mutant AR of LNCaP cells): competes with labeled DHT for binding to the AR; incidence of BP-induced pulmonary adenomas [1]: reduced the incidence; effects on the growth of PC-3 cells (PC-3 cells): no observable effects; inhibition of PSA mRNA induction by DHT (PSA gene expression; 24 h co-treatment with DIM): up to 80%; decrease in PSA mRNA levels (PSA gene expression; DIM treatment, concentration- and time-dependent): up to 70%
